# Measurements published in US10716773B2, “Compositions comprising 15-HEPE and methods of treating or preventing cancer and neurologic disease” (Afimmune Limited, priority 2015, dated 2020).
# “And” between values parts separate entries of the source, which are not always exact repeats. Identical values can stand only once.
# Experiments:
# [1] = test system: caspase-3/7; assay: Staurosporine-induced caspase-3/7 activity in NHDF, measured in cell lysates with fluorogenic substrate Ac-DEVD-AMC; format: cell-based, human; conditions: staurosporine-stimulated NHDF; for Caspase-3/7 activity (Fluorescence 380 nm/440 nm) / Caspase-3/7 activity - Background (Fluorescence 380 nm/440 nm) / Caspese-3/7 activity/proteins: single replicates, listed as 16(8)-HE PE EE
# Description: The potential inhibitory effect of compounds 15(S)-HEPE EE and EPA EE was evaluated on staurosporine-induced caspase activation in normal human dermal fibroblasts (NHDF). […] Normal human dermal fibroblasts (NHDF) were used at the 8th passage. […] Fibroblasts were seeded in 24-well plates and cultured for 24 hours in culture medium. The medium was then removed and replaced by assay medium containing or not (control) the test compounds and cells were pre-incubated for 24 hours. […] The cells were then incubated for 24 hours. Non-stimulated controls (without inducer) were performed in parallel. All experimental conditions were performed in n=3. […] Enzyme activity assay and protein quantification assay were performed in separated plates due to the fact that DTT used in the lysis buffer for caspase activity interferes with protein quantification. […] Lysis buffer: HEPES buffer (pH 7.4) containing EDTA, Triton X-100, NP-40 and DTT Assay Buffer: HEPES buffer (pH 7.4) containing NaCl, EDTA, NP-40, glycerol and DTT Substrate: Ac-DEVD-AMC, tested at 10 μM (stock solution at 1.5 mM in DMSO) Reference inhibitor: […] Ac-DEVD-AMC is a synthetic tetrapeptide fluorogenic substrate for caspase-3 and caspase-7 and contains the amino acid sequence of the PARP cleavage site at […]. […] Enzymes cleave the tetrapeptide between D and AMC resulting in the release of fluorogenic AMC, which can be quantified with a spectrofluorometer. […] In parallel, an additional control (assay buffer containing the substrate) was also performed to determine the background signal. At the end of incubation, the fluorescence intensity emitted by the reaction product (cleaved Ac-DEVD-AMC) was measured at wavelengths λex 380 nm and λem 440 nm using a spectrofluorimeter (SPECTRAmax® Gemini, Molecular Devices).
# [2] = test system: normal human dermal fibroblasts (NHDF); assay: MTT reduction assay and observation of the cell layers: viability of fibroblasts after 48 hours of incubation; format: cell-based; conditions: for Visability (%): single replicates
# Description: Normal human dermal fibroblasts (NHDF) were used at the 8th passage. Cells were cultured at 37° C., 5% CO2 in DMEM supplemented with L-glutamine 2 mM, 50 U/ml Penicillin, 50 μg/ml Streptomycin and 10% Foetal calf serum (FCS).
smiles,measurement,setting,value
CC/C=C\C[C@H](O)/C=C/C=C\C/C=C\C/C=C\CCCC(=O)OCC [15(S)-HEPE EE],% inhibition,[1]; 0.001 μg/ml,−37%
same,% stimulated control,[1]; 0.001 μg/ml,134%
same,Normalized data: Mean (caspase-3/7 activity/proteins),[1]; 0.001 μg/ml,114767 AU/mg
same,Caspase-3/7 activity (Fluorescence 380 nm/440 nm),[1]; 0.001 μg/ml,1809 AU and 1753 AU and 1686 AU
same,Caspase-3/7 activity - Background (Fluorescence 380 nm/440 nm),[1]; 0.001 μg/ml,1479 AU and 1423 AU and 1396 AU
same,Caspese-3/7 activity/proteins,[1]; 0.001 μg/ml,109076 AU/mg and 129611 AU/mg and 105615 AU/mg
same,% inhibition,[1]; 0.01 μg/ml,−6%
same,% stimulated control,[1]; 0.01 μg/ml,106%
same,Normalized data: Mean (caspase-3/7 activity/proteins),[1]; 0.01 μg/ml,90306 AU/mg
same,Caspase-3/7 activity (Fluorescence 380 nm/440 nm),[1]; 0.01 μg/ml,1495 AU and 1587 AU and 1789 AU
same,Caspase-3/7 activity - Background (Fluorescence 380 nm/440 nm),[1]; 0.01 μg/ml,1166 AU and 1258 AU and 1459 AU
same,Caspese-3/7 activity/proteins,[1]; 0.01 μg/ml,81085 AU/mg and 89757 AU/mg and 100075 AU/mg
same,% inhibition,[1]; 0.1 μg/ml,4%
same,% stimulated control,[1]; 0.1 μg/ml,98%
same,Normalized data: Mean (caspase-3/7 activity/proteins),[1]; 0.1 μg/ml,82485 AU/mg
same,Caspase-3/7 activity (Fluorescence 380 nm/440 nm),[1]; 0.1 μg/ml,1468 AU and 1697 AU and 1154 AU
same,Caspase-3/7 activity - Background (Fluorescence 380 nm/440 nm),[1]; 0.1 μg/ml,1139 AU and 1367 AU and 825 AU
same,Caspese-3/7 activity/proteins,[1]; 0.1 μg/ml,81102 AU/mg and 109799 AU/mg and 56654 AU/mg
same,% inhibition,[1]; 1 μg/ml,−9%
same,% stimulated control,[1]; 1 μg/ml,108%
same,Normalized data: Mean (caspase-3/7 activity/proteins),[1]; 1 μg/ml,93200 AU/mg
same,Caspase-3/7 activity (Fluorescence 380 nm/440 nm),[1]; 1 μg/ml,1536 AU and 1600 AU and 1735 AU
same,Caspase-3/7 activity - Background (Fluorescence 380 nm/440 nm),[1]; 1 μg/ml,1206 AU and 1270 AU and 1406 AU
same,Caspese-3/7 activity/proteins,[1]; 1 μg/ml,86474 AU/mg and 94481 AU/mg and 93645 AU/mg
same,% inhibition,[1]; 10 μg/ml,8%
same,% stimulated control,[1]; 10 μg/ml,93%
same,Normalized data: Mean (caspase-3/7 activity/proteins),[1]; 10 μg/ml,80078 AU/mg
same,Caspase-3/7 activity (Fluorescence 380 nm/440 nm),[1]; 10 μg/ml,1439 AU and 1551 AU and 1514 AU
same,Caspase-3/7 activity - Background (Fluorescence 380 nm/440 nm),[1]; 10 μg/ml,1109 AU and 1221 AU and 1184 AU
same,Caspese-3/7 activity/proteins,[1]; 10 μg/ml,76241 AU/mg and 81395 AU/mg and 82597 AU/mg
same,% inhibition,[1]; 100 μg/ml,83%
same,% stimulated control,[1]; 100 μg/ml,26%
same,Normalized data: Mean (caspase-3/7 activity/proteins),[1]; 100 μg/ml,21632 AU/mg
same,effect on caspase-3/7 activity (in words),[1]; 100 μg/ml,clear inhibitory effect
same,Caspase-3/7 activity (Fluorescence 380 nm/440 nm),[1]; 100 μg/ml,663 AU and 729 AU and 660 AU
same,Caspase-3/7 activity - Background (Fluorescence 380 nm/440 nm),[1]; 100 μg/ml,324 AU and 400 AU and 320 AU
same,Caspese-3/7 activity/proteins,[1]; 100 μg/ml,15788 AU/mg and 15464 AU/mg and 19643 AU/mg
same,effect on caspase-3/7 activity (in words),[1]; tested from 0.001 to 10 μg/ml,no effect
same,Visability (%) Mean,[2]; 0.001 μg/ml,98%
same,Visability (%),[2]; 0.001 μg/ml,99% and 97% and 98%
same,Visability (%) Mean,[2]; 0.01 μg/ml,96%
same,Visability (%),[2]; 0.01 μg/ml,90% and 100% and 98%
same,Visability (%) Mean,[2]; 0.1 μg/ml,97%
same,Visability (%),[2]; 0.1 μg/ml,99% and 96% and 98%
same,Visability (%) Mean,[2]; 1 μg/ml,97%
same,Visability (%),[2]; 1 μg/ml,96% (2×) and 97%
same,Visability (%) Mean,[2]; 10 μg/ml,101%
same,Visability (%),[2]; 10 μg/ml,100% and 102% and 101%
same,Visability (%) Mean,[2]; 30 μg/ml,99%
same,Visability (%),[2]; 30 μg/ml,103% and 98% and 96%
same,Visability (%) Mean,[2]; 100 μg/ml,104%
same,Visability (%),[2]; 100 μg/ml,103% and 105% and 104%
same,Visability (%) Mean,[2]; 300 μg/ml,100%
same,Visability (%),[2]; 300 μg/ml,98% and 105% and 97%
